Measured values reported in patent US20050158391A1, “Azithromycin multiparticulate dosage forms by melt-congeal processes” (Pfizer Inc, priority 2003, published 2005).
Where two headings read alike, the source gives them in different places.

What was measured:
[1] = Solubility of azithromycin dihydrate in molten excipient; type: physicochemical; conditions: 65° C.
Procedure: The solubility of azithromycin dihydrate in beeswax was measured using the following procedure. A 5 g sample of beeswax was placed in a glass vial and melted at 65° C. by placing the vial in a hot-water bath. Crystals of azithromycin dihydrate were then slowly added to the molten wax, with stirring. The crystals first added dissolved into the wax. […] Thus, the solubility of azithromycin dihydrate in beeswax was determined to be about 6 wt %.
Using the procedure outlined in Screening Example 29, the solubility of azithromycin dihydrate in the excipients listed in Table 8 was determined at the temperatures listed therein. In addition, the solubility of azithromycin dihydrate was determined for mixtures of carriers in the weight ratios reported in Table 8.

[2] = cited from earlier work
[3] = Degree of acid/ester substitution [A] from Saponification Number; type: physicochemical; conditions: for [A] degree of acid/ester substitution: Saponification Number (Pharmaceutical Excipients 2000) divided by 56.11
Description: However, in most cases, the excipient candidate is not available in pure form, and may constitute a mixture of several primary molecular types as well as small amounts of impurities or degradation products that could be acids or esters. In addition, many excipient candidates are natural products or are derived from natural products that may contain a wide range of compounds, making the above calculations extremely difficult, if not impossible. […] The Saponification Number is the number of milligrams of potassium hydroxide required to neutralize or hydrolyze any acid or ester substituents present in 1 gram of the material. Measurement of the Saponification Number is a standard way to characterize many commercially available pharmaceutical excipients and the manufacturer often provides an excipient's Saponification Number. The Saponification Number will not only account for acid and ester substituents present on the excipient itself, but also for any such substituents present due to impurities or degradation products in the excipient. Thus, the Saponification Number will often provide a more accurate measure of the degree of acid/ester substitution in the excipient.
The degree of acid and ester substitution on a excipient can be calculated from the Saponification Number as follows. Dividing the Saponification Number by the molecular weight of potassium hydroxide, 56.11 g/mol, results in the number of millimoles of potassium hydroxide required to neutralize or hydrolyze any acid or ester substituents present in one gram of the excipient. Since one mole of potassium hydroxide will neutralize one equivalent of acid or ester substituents, dividing the Saponification Number by the molecular weight of potassium hydroxide also results in the number of meq of acid or ester substituents present in one gram of excipient.
For example, glyceryl monostearate can be obtained with a Saponification Number of 165, as specified by the manufacturer. Thus, the degree of acid/ester substitution per gram of glyceryl monostearate or its acid/ester concentration is 165÷56.11=2.9 meq/g excipient. Using the above example of a composition with 30 wt % azithromycin and 70 wt % glyceryl monostearate, the theoretical concentration of esters formed per gram of azithromycin if all of the azithromycin reacted would be 2.9 meq/g×70/30=6.8 meq/g.
This example illustrates how the degree of acid/ester substitution can be determined from the Saponification Number for an excipient. The degree of acid/ester substitution [A] for the excipients listed in Table 5 was determined by dividing by 56.11 the Saponification Number for the carrier as listed in Pharmaceutical Excipients 2000.
This example illustrates how the degree of acid/ester substitution can be determined from the Saponification Number for an excipient. The degree of acid/ester substitution for the excipients listed in Table 6 were determined by dividing by 56.11 the Saponification Number provided by the manufacturer.

[4] = as listed in Pharmaceutical Excipients 2000

| solubility of azithromycin dihydrate in beeswax [1] | [A] degree of acid/ester substitution [3] | degree of acid/ester substitution (acid/ester concentration) ([3]; 165÷56.11) [meq/g excipient] | Compound | Saponification Number [2, 4] | Saponification Number ([2]; as specified by the manufacturer (description example)) |
| --- | --- | --- | --- | --- | --- |
| about 6 wt % | – | – | CC[C@H]1OC(=O)[C@H](C)[C@@H](O[C@H]2C[C@@](C)(OC)[C@@H](O)[C@H](C)O2)[C@H](C)[C@@H](O[C@@H]2O[C@H](C)C[C@H](N(C)C)[C@H]2O)[C@](C)(O)C[C@@H](C)CN(C)[C@H](C)[C@@H](O)[C@]1(C)O [azithromycin dihydrate, 9a-aza-9a-methyl-9-deoxo-9a-homoerythromycin A] | – | – |
| – | <0.04 meq/g carrier | – | CCCCCCCCCCCCCCCCO [cetyl alcohol] | <2 | – |
| – | 2.8-2.9 meq/g carrier | 2.9 | CCCCCCCCCCCCCCCCCC(=O)OCC(O)CO (stereo not drawn) [glyceryl monostearate] | 155-165 | 165 |
| – | 3.6-3.9 meq/g carrier | – | CCCCCCCCCCCCCCCCCC(=O)O [stearic acid, octadecanoic acid] | 200-220 | – |
| – | <0.04 meq/g carrier | – | CCCCCCCCCCCCCCCCCCO [stearyl alcohol, 1-octadecanol] | <2 | – |
| – | 2.6-2.8 meq/g carrier | – | sorbitan monostearate | 147-157 | – |

| Compound | solubility of azithromycin dihydrate in beeswax [1] | [A] degree of acid/ester substitution [3] | degree of acid/ester substitution (acid/ester concentration) ([3]; 165÷56.11) [meq/g excipient] | Saponification Number [2, 4] | Saponification Number ([2]; as specified by the manufacturer (description example)) |
| --- | --- | --- | --- | --- | --- |
| CCCCCCCC/C=C\CCCCCCCC(=O)OCC(O)CO (stereo not drawn) [glyceryl monooleate] | – | 2.9-3.0 meq/g carrier | – | 160-170 | – |
